In data set [1] the test system is patients with refractory CRS. The data set is described as follows: Part I prospective study, Rhinotopic therapy spray: Lund-Kennedy scores, clinical course, side effects. In kind it is in vivo. An excerpt:
The first part is a prospective study that includes 20 patients with refractory CRS, treated in with Rhinotopic therapy spray at a tertiary rhinology fellowship-training program. The patients were placed on the rhinotopic protocol only after they failed extended standard medical therapy. The latter is defined, for the purpose of this study, as three or more repeated courses of different oral antibiotics along with nasal corticosteroids sprays and nasal saline rinses (each lasting at least 3 weeks), within a 6 month-period, along with oral corticosteroids when indicated (in case of significant polyposis or Samter's triad). Patients who failed extended medical therapy were given the option of revision sinus surgery or rhinotopic therapy; all 20 patients chose rhinotopic therapy and were consented accordingly. […]
CT scans were reviewed prior to treatment and evaluated following the Lund-Mackay radiologic scoring system (9). Clinical response to treatment was monitored using the Lund-Kennedy (LK) symptoms score and the LK endoscopic appearance score (9). […] The LK symptoms score evaluated nasal congestion and obstruction, headache, facial pain, alteration I the sense of smell, nasal discharge, and sneezing. The LK endoscopic appearance score evaluated the presence or absence of nasal polyps, edema, discharge, scarring, and crusting on each side of the nasal cavity. […]

For data set [2] the following is noted: prolonged intravenous use; cited from earlier work.

For the molecule `CN[C@H](CC(C)C)C(=O)N[C@H]1C(=O)N[C@@H](CC(N)=O)C(=O)N[C@H]2C(=O)N[C@H]3C(=O)N[C@H](C(=O)N[C@H](C(=O)O)c4cc(O)cc(O)c4-c4cc3ccc4O)[C@H](O)c3ccc(c(Cl)c3)Oc3cc2cc(c3O[C@@H]2O[C@H](CO)[C@@H](O)[C@H](O)[C@H]2O[C@H]2C[C@](C)(N)[C@H](O)[C@H](C)O2)Oc2ccc(cc2Cl)[C@H]1O` [Vancomycin], the “patients who developed an allergic reaction (skin rash over the upper lip)” value in data set [1] (nebulized, stopped the treatment and dropped out) is “One”. The side effects result in data set [2] is “toxicity to the kidneys and the inner ear”.
Consider `CC(C)(O/N=C(\C(=O)N[C@@H]1C(=O)N2C(C(=O)[O-])=C(C[n+]3ccccc3)CS[C@H]12)c1csc(N)n1)C(=O)O` [ceftazidine], for which the clinical response result in data set [1] (intravenous, one patient, before the rhinotopic protocol) is given as “improved transiently but their symptoms recurred”.

The values are drawn from patent US20140336463A1, “Rhinotopic therapy for the treatment of chronic rhinosinusitis biofilm disruption, treatment of mucosal granulation and sinus polyps” (priority 2009, published 2014).
